Results on ten compounds are retold here after patent publication US20130158075A1, “HETEROCYCLIC COMPOUNDS AS DGAT1 INHIBITORS” (PIRAMAL ENTERPRISES LIMITED, priority 2010, published 2013).

Molecules are shown by their SMILES. Some results are limits rather than exact numbers.

The first assay has as its system DGAT1 mediated retinyl-ester formation in Caco-2 cells.
Test: not given
The note with it: cited from earlier work.
For the compound `CC(C)C(NC(=O)c1ccc(-c2ccc(Nc3nc4ccc(F)cc4s3)cc2)cc1)C(=O)O` (centres unmarked) [XP620, 2-(4′-(6-fluorobenzo[d]thiazol-2-ylamino)biphenyl-4-ylcarboxamido)-3-methylbutanoic acid], the “block of DGAT1 mediated retinyl-ester formation” value is given as “able to block”.

Another assay concerns the target T1, hDGAT1 (Homo sapiens, UniProt O75907).
T1 construct: made in house; host or cells: Sf9 insect cells (baculovirus); microsomal fraction
T1 sequence (O75907 1-488): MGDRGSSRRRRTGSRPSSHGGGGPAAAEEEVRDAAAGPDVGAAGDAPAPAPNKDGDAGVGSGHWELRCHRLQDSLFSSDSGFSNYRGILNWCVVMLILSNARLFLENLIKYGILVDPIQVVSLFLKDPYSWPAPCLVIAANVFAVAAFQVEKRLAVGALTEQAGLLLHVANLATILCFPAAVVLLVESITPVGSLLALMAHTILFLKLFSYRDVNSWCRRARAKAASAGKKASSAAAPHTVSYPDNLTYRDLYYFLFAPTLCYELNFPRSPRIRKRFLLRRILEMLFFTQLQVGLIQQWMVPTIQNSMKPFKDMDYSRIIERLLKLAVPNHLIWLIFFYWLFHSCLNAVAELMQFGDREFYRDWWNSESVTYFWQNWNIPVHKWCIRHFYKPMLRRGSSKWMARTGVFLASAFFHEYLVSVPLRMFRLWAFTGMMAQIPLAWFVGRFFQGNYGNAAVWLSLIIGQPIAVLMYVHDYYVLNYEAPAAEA
The assay is described as follows: In-vitro DGAT1 assay with hDGAT1 microsomes from Sf9 cells (14C oleoyl CoA, scintillation counting). The format is biochemical. As to conditions: read-out: Percentage inhibition of hDGAT1. The method, boiled down:
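Radiolabelled triglyceride formation was measured: heptane extracts were scintillation-counted after a 10-min, 37 °C reaction stopped with alkaline ethanol. Enzyme was human DGAT1 in baculovirus-infected Sf9 microsomal membranes; substrates were 14C oleoyl-CoA plus dioleoylglycerol. Runs were duplicated, and inhibition (%) was related to nM compound concentration.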
In the case of `CC(C)(CCc1ncc(-c2ccc(NC(=O)Nc3ccccc3Cl)cc2)s1)C(=O)NS(=O)(=O)C(F)(F)F` [Example 579, 4-(5-(4-(3-(2-Chlorophenyl)ureido)phenyl)thiazol-2-yl)-2,2-dimethyl-N-((trifluoromethyl)sulfonyl)butanamide], the inhibition at 1 µM was greater than 50%. As to `CC(C)(CCc1ncc(-c2ccc(NC(=O)Nc3ccccc3F)cc2)s1)C(=O)NS(=O)(=O)C(F)(F)F` [Example 580, 4-(5-(4-(3-(2-Fluorophenyl)ureido)phenyl)thiazol-2-yl)-2,2-dimethyl-N-((trifluoromethyl)sulfonyl)butanamide], the inhibition at 1 µM is greater than 50%. For `CC(C)(CCc1ncc(-c2ccc(NC(=O)Nc3cc(F)cc(F)c3)cc2)s1)C(=O)NS(=O)(=O)C(F)(F)F` [Example 581, 4-(5-(4-(3-(3,5-Difluorophenyl)ureido)phenyl)thiazol-2-yl)-2,2-dimethyl-N-((trifluoromethyl)sulfonyl)butanamide], the inhibition at 1 µM is greater than 50%.

Regarding `CC(C)(CCc1ncc(-c2ccc(NC(=O)Nc3cc(F)c(F)cc3F)cc2)s1)C(=O)NS(=O)(=O)C(F)(F)F` [Example 582, 2,2-Dimethyl-N-((trifluoromethyl)sulfonyl)-4-(5-(4-(3-(2,4,5-trifluorophenyl)ureido)phenyl)thiazol-2-yl)butanamide], the inhibition at 1 µM is greater than 50%. Still for that read-out and setting: in the case of `O=C(Nc1ccc(-c2cnc(C3CCC(C(=O)O)CC3)s2)cc1)Nc1cc(F)c(F)cc1F` (centres unmarked) [Example 584, 4-(5-(4-(3-(2,4,5-Trifluorophenyl)ureido)phenyl)thiazol-2-yl)cyclohexane carboxylic acid] it was greater than 50%; in that of `CC(C)(O)C1CCC(c2ncc(-c3ccc(NC(=O)Nc4cc(F)c(F)cc4F)cc3)s2)CC1` (centres unmarked) [Example 585, 1-(4-(2-(4-(2-Hydroxypropan-2-yl)cyclohexyl)thiazol-5-yl)phenyl)-3-(2,4,5-trifluorophenyl)urea], greater than 50%. `CC(C)(N)C1CCC(c2ncc(-c3ccc(NC(=O)Nc4cc(F)c(F)cc4F)cc3)s2)CC1` (centres unmarked) [Example 587, 1-(4-(2-(4-(2-Aminopropan-2-yl)cyclohexyl)thiazol-5-yl)phenyl)-3-(2,4,5-trifluorophenyl)urea]: the inhibition at 1 µM is greater than 50%.

In the case of `CC(C)(N)C1CCC(c2ncc(-c3ccc(NC(=O)Nc4ccc(F)cc4F)cc3)s2)CC1` (centres unmarked) [Example 589, 1-(4-(2-(4-(2-Aminopropan-2-yl)cyclohexyl)thiazol-5-yl)phenyl)-3-(2,4-difluorophenyl)urea], the inhibition at 1 µM is greater than 50%. For `CC(C)(N)CC1CCC(c2ncc(-c3ccc(NC(=O)Nc4cc(F)c(F)cc4F)cc3)s2)CC1` (centres unmarked) [Example 591, 1-(4-(2-(4-(2-Amino-2-methylpropyl)cyclohexyl)thiazol-5-yl)phenyl)-3-(2,4,5-trifluorophenyl)urea], the inhibition at 1 µM was greater than 50%.

The target of a further assay is DGAT2 (Homo sapiens, UniProt Q96PD7).
Sequence of DGAT2 (Q96PD7 whole entry, species assumed): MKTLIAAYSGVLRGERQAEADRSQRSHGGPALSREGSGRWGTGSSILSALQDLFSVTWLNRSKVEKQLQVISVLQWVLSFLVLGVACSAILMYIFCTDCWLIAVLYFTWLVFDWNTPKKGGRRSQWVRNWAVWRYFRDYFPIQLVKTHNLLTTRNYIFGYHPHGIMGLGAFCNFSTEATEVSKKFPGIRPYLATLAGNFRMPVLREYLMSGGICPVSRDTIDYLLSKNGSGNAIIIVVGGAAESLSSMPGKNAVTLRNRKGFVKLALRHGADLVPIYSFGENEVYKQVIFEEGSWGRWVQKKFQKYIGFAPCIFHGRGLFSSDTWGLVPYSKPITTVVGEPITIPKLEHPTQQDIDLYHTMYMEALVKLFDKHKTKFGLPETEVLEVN
Test: not given
As to conditions: cited from earlier work.
In the case of `CC(C)C(NC(=O)c1ccc(-c2ccc(Nc3nc4ccc(F)cc4s3)cc2)cc1)C(=O)O` (centres unmarked) [XP620, 2-(4′-(6-fluorobenzo[d]thiazol-2-ylamino)biphenyl-4-ylcarboxamido)-3-methylbutanoic acid], the “activity against DGAT2” value is “no activity”.
